# Measurements published in EP0358177A1, “Medicine with a synergistic antimycosic and antiviral activity” (HOECHST AKTIENGESELLSCHAFT, priority 1988, dated 1990).
# Like-named read-outs stand apart in the source and are kept apart here.
# Legend:
# Type in all cases: cell-based
# M. canis = assay: Minimal inhibitory concentration (MHK), microdilution test in Neopepton Dextrose Bouillon; settings: Microsporum canis, read-out: MHK
# From the text: (§1) Die minimale Hemmkonzentration (MHK), das heißt, diejenige Konzentration bei der das Wachstum der Pilze noch makroskopisch sichtbar gehemmt ist, wurde im Mitrkoverdünnungstest (Mikrodilutiontest in Neopepton Dextrose Boullion, siehe: "Comparison of two different techniques in primary micrological screening": Standard serial dilution test and microtitration test; W. Raether, M. Uphoff und G. Staut, mycosen, 27 (1984), p. 15 - 28) geprüft. Das Inokulum pro Weil betrug bei Candida albicans 10^3 cfu/ml und bei Microsporum canis 1,6 10^5 cfu/ml (cfu = colony forming units).
# (§2) Zunächst wurde die minimale Hemmkonzentration eines jeden Kombinationspartners (Ciclopiroxolamin bzw. Nigericin oder Nigericinderivat) allein festgestellt (Cyclopyoxolamin: 2 u.g/ml; Nigericin und alle Nigericinderivate: >128 u.g/ml). Anschließend wurde die MHK für Ciclopiroxolamin in Anwesenheit von jeweils 64 µg/ml, 16 u.g/ml und 1 µg/ml eines Nigericinderivats geprüft, um festzustellen inwieweit der Zusatz des Nigericinderivats die Wirkung von Ciclopiroxolamin verstärken konnte.
# C. albicans = assay: as above; settings: Candida albicans, read-out: MHK
# From the text: as §1, §2
# [1] = system: Microsporum Canis und Candida albicans; assay: Minimal inhibitory concentration (MHK), microdilution test, text statements not separated by test strain; settings: each combination partner alone; test strain not specified; read-out: minimale Hemmkonzentration eines jeden Kombinationspartners allein
# From the text: as §1, §2
smiles,measurement,setting,value
COC1CC(CC2CCC(C)C(C(C)C(=O)O)O2)OC2(OC(C)(C3CCC(C)(C4OC(C5OC(O)(COC(=O)c6ccccc6)C(C)CC5C)CC4C)O3)CC2C)C1C (stereo not shown) [Beispiel 18],MIC,M. canis,128 µg/mL
same,MIC,C. albicans,128 µg/mL
"Cc1cc(C2CCCCC2)n(O)c(=O)c1 [Ciclopiroxolamin, Ethanolamin des 6-Cyclohexyl-1-Hydroxy-4-methyl-2(1H)-Pyridons, reference compound]",MIC,"M. canis; M. canis, substance alone",2 µg/mL
same,MIC,"C. albicans; C. albicans, substance alone",2 µg/mL
same,MIC,[1],2 µg/mL
COC1CC(CC2CCC(C)C(C(C)C(=O)O)O2)OC2(OC(C)(C3CCC(C)(C4OC(C5OC(O)(COC(=O)CCOc6ccccc6)C(C)CC5C)CC4C)O3)CC2C)C1C (stereo not shown) [Beispiel 20],MIC,M. canis,128 µg/mL
same,MIC,C. albicans,128 µg/mL
COC1CC(CC2CCC(C)C(C(C)C(=O)O)O2)OC2(OC(C)(C3CCC(C)(C4OC(C5OC(O)(COC(=O)CCC(=O)O)C(C)CC5C)CC4C)O3)CC2C)C1C (stereo not shown) [Beispiel 17],MIC,M. canis,128 µg/mL
same,MIC,C. albicans,128 µg/mL
COC1CC(CC2CCC(C)C(C(C)C(=O)O)O2)OC2(OC(C)(C3CCC(C)(C4OC(C5OC(O)(COC(=O)Cc6ccccc6)C(C)CC5C)CC4C)O3)CC2C)C1C (stereo not shown) [Beispiel 19],MIC,"M. canis; M. canis, substance alone",128 µg/mL
same,MIC,"C. albicans; C. albicans, substance alone",128 µg/mL
"CO[C@@H]1C[C@@H](C[C@H]2CC[C@H](C)[C@H]([C@@H](C)C(=O)O)O2)O[C@]2(O[C@](C)([C@H]3CC[C@@](C)([C@@H]4O[C@@H]([C@H]5O[C@@](O)(CO)[C@H](C)C[C@@H]5C)C[C@@H]4C)O3)C[C@H]2C)[C@@H]1C [Nigericin, reference compound]",MIC,"M. canis; M. canis, substance alone",128 µg/mL
same,MIC,"C. albicans; C. albicans, substance alone",128 µg/mL
